Like-named read-outs stand apart in the source and are kept apart here.
How the values were obtained:
human h-15-LOX-1 = target: T1, human h-15-LOX-1 (Homo sapiens, UniProt P16050); test: Human h-15-LOX-1 screening UV assay; assay type: biochemical; details: for h-15-LOX-1 inhibitory potency ranking at 50 µM (in words): 10 min pre-incubation
T1 sequence (P16050 1-662): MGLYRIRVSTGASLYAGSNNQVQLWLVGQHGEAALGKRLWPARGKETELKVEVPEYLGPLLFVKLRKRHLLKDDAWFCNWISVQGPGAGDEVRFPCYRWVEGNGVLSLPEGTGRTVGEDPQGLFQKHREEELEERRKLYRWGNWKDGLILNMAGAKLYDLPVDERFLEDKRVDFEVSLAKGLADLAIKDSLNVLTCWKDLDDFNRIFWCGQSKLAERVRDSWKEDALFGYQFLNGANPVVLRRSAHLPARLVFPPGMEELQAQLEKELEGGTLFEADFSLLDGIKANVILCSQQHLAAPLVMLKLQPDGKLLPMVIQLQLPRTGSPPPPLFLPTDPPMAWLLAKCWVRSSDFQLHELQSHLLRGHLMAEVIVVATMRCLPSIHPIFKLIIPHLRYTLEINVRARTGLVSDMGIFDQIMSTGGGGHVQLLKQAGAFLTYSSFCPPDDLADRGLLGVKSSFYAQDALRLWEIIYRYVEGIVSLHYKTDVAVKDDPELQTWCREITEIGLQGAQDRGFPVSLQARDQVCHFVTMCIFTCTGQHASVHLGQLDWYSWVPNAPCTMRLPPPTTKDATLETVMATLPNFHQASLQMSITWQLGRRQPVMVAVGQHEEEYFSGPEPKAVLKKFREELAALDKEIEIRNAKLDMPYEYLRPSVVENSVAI
Experimental: The residual enzyme activity was measured after 10 min pre-incubation with the tested compounds at room temperature. […] Compound c11 follows.
The assay buffer consists of HEPES titrated to pH 7.5 using a concentrated aqueous solution of NaOH. Linoleic acid (LA) was used as a substrate. The linear absorbance increase in absence of the inhibitor was set as 100%, whereas the absorbance increase in absence of the enzyme was set to 0%. All experiments were performed in triplicate and the average triplicate values and their standard deviations are plotted. The vertical axis describes the residual enzyme activity percent % of the human h-15-LOX-1, whereas the horizontal axis describes the concentration of 50 µM of the compounds. The half maximal inhibitor concentration (IC50) of the inhibitors for h-15-LOX-1 was determined using the same assay (Figure 6 and Figure 7).

[1] = Reducing activity with the stable radical DPPH
Summary of the method: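 DPPH (final 0.05 mM) in absolute ethanol mixed with an equal volume of compound at 0.05 or 0.1 mM, ethanol as control. Absorbance at 517 nm read at room temperature after 20 and 60 min, expressed as reducing activity RA%.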

soybean lipoxygenase = target: T2, soybean lipoxygenase (Glycine max, UniProt P08170); test: biochemical; assay type: biochemical
T2 sequence (P08170 1-839): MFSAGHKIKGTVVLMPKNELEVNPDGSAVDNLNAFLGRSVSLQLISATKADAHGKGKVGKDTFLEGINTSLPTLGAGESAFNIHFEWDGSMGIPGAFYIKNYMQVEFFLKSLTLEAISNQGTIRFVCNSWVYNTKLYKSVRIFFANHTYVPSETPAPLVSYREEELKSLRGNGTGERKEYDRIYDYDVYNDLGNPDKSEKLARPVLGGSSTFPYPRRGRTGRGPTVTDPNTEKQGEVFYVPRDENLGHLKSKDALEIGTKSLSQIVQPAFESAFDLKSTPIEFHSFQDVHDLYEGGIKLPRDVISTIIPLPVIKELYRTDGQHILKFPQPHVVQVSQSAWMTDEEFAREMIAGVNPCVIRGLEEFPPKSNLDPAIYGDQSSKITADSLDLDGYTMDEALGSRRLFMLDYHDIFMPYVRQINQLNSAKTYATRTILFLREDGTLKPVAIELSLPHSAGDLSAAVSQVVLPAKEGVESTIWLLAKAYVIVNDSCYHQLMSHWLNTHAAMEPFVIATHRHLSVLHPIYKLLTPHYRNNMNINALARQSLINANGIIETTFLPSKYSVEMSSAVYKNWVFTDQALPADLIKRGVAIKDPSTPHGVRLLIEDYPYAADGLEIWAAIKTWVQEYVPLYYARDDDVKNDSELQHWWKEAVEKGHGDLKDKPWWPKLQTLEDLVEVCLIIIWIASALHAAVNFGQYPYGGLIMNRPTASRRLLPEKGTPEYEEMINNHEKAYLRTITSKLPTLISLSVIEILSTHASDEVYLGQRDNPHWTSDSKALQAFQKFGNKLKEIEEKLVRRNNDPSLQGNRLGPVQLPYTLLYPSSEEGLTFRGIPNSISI
Summary of the method: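 Soybean LOX (enzyme solution 1/9 × 10^−4 w/v in saline) incubated at room temperature with sodium linoleate ([…]) in tris buffer pH 9. Compounds added from DMSO stocks. IC50 derived from several concentrations.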

SMILES | h-15-LOX-1 inhibitory potency ranking at 50 µM (in words) (human h-15-LOX-1) | IC50 (human h-15-LOX-1; read-out: h-15-LOX-1 Inhb. IC50) [µM] | RA% 100 μM 20 min [1] | RA% 100 μM 60 min [1] | % LOX Inhb. @ 100 μM (soybean lipoxygenase; soybean LOX) [%] | IC50 (soybean lipoxygenase; soybean LOX, read-out: LOX IC50) [µM] | IC50 (soybean lipoxygenase) [µM]
O=C(/C=C/c1cccc2ccccc12)c1ccccc1O [b4, (E)-1-(2-hydroxyphenyl)-3-(naphthalen-1-yl) prop-2-en-1-one] | highest activity within the group | 9.5 | 30% | 20% | 82 | 65 | –
CC(=O)c1ccc(OCCCCCCCOc2ccc(C(C)=O)cc2)cc1 [dvi, 1,1′-((heptane-1,7-diylbis(oxy))bis-(4,1-phenylene)) diethanone] | – | – | – | – | 17 | – | –
O=C(/C=C/C=C/c1ccc([N+](=O)[O-])cc1)c1ccc(OCCCOc2ccc(C(=O)/C=C/C=C/c3ccc([N+](=O)[O-])cc3)cc2)cc1 [c11, (2E,2′E,4E,4′E)-1,1′-((propane-1,3-diylbis(oxy))bis(4,1-phenylene))bis(5-(4-nitrophenyl)penta-2,4-dien-1-one)] | (2nd potent at 50 μM) | – | No | no | 95 | – | 50
CC(=O)c1ccc(OCCOc2ccc(C(C)=O)cc2)cc1 [di, 1,1′-((ethane-1,2-diylbis(oxy))bis(4,1-phenylene))diethanone] | – | – | – | – | 12 | – | –
